ChEMBL document CHEMBL1157539, “Thousands of chemical starting points for antimalarial lead identification” (Nature, 2010)

Tested on: Plasmodium falciparum
Experiment: GSK_TCMDC: Inhibition of Plasmodium falciparum 3D7 in whole erythrocytes, using parasite LDH activity as an index of growth.
Type: functional, organism-based
Details: Plasmodium falciparum, 3D7

Row | SMILES | XC50
1 | CC(C)CN1CCC(N(C)c2cc(NC(=O)c3cccc(F)c3)ccn2)CC1 | 848 nM
2 | COc1cc(CC2c3cc(O)c(Cl)cc3CCN2C)c(OC)cc1C (configuration not stated) | 713 nM
3 | CCOC(=O)c1cc(C(=O)NCCCCN2CCC(c3ccc4c(c3OC)CCCC4)CC2)ccc1-c1ccc(C(F)(F)F)cc1 | 707 nM
4 | CC[C@]1(C)C[C@@H](NC(=O)NC(=O)c2ccc(OC)cc2)[C@]2(C)[C@H](C)CC[C@]3(CCC(=O)[C@H]32)[C@@H](C)[C@@H]1OC(=O)NC(=O)c1ccc(OC)cc1 | 987 nM
5 | CC1(C)NC(N)=NC(=N)N1OCCCCCOc1ccccc1 | 3.2 nM
6 | Cc1nc(NC(=N)N)nc2ccc(C(C)(C)C)cc12 | 747 nM
7 | CCC(CO)NCC(O)Cn1c2ccc(Cl)cc2c2cc(Cl)ccc21 (configuration not stated) | 768 nM
8 | COc1cccc(-c2cc(C(F)(F)F)n3ncc(C(=O)Nc4cc(Cl)ccc4O)c3n2)c1 | 203 nM
9 | CN(C)c1nc2cc(-n3cnc4cc(-c5ccc(Cl)cc5)sc4c3=O)ccc2n1CCCN1CCCC1 | 848 nM
10 | O=C1COc2ccc(S(=O)(=O)N3CCC[C@@H]3CCN3CCC(c4c[nH]c5cnccc45)CC3)cc2N1 | 865 nM
11 | CN1CCN(c2ccnc3ccc(NC(=O)Nc4ccc(Cl)c(Cl)c4)cc23)CC1 | 876 nM
12 | N#Cc1ccc2[nH]cc(CN3CCC4(CC3)CN(CCNCc3ccccc3)C(=O)CO4)c2c1 | 758 nM
13 | N=C(N)Nc1ccc(Cc2ccc(NC(=N)N)cc2)cc1 | 255 nM
14 | Cc1cccc2nc(-c3cccc(-c4ccc(NC(=O)Nc5ccc(F)c(F)c5F)cc4)c3)[nH]c12 | 168 nM
15 | CCN(Cc1ccc(-c2ccc(C(F)(F)F)cc2)cc1)C(=O)Cn1c(SCc2cccc(F)c2F)cc(=O)c2cc(CN3CCCCC3)ccc21 | 801 nM
16 | C[C@H](Nc1nc(C(Oc2ccccc2)c2ccccc2)nc2[nH]ncc12)c1ccccc1 (some centres not stated) | 484 nM
17 | CCCCN(CCCC)CCOc1cc2c(cc1OC)CCN2C(=O)/C=C/c1ccccc1Cl | 1180 nM
18 | Cc1cc(N2CCCCC2)nc2ccc(NC(=O)c3cc(=O)c4ccccc4o3)cc12 | 716 nM
19 | COc1ccc(CN2CCCN(Cc3cccc(NC(=O)c4ccc(Cl)c(Cl)c4)c3)CC2)cc1 | 973 nM

Row | SMILES | XC50
20 | CC(=O)Nc1ccc(C(=O)Nc2cccc(-c3cccc(-c4nc5cc(F)ccc5[nH]4)c3)c2)cn1 | 134 nM
21 | NC1CCN(Cc2cccc(-c3ccc(-c4nc5ccccc5[nH]4)s3)c2)C1 (configuration not stated) | 727 nM
22 | O=C(/C=C/c1ccc(Cl)c(Cl)c1)NCCCCCCN1CCCN(C(=O)Nc2ccc(F)c(F)c2)CC1 | 1240 nM
23 | N#Cc1cccc(-c2cccc(C(=O)NC3CCC(CCN4CCc5ccc(C#N)cc5CC4)CC3)c2)c1 (configuration not stated) | 265 nM
24 | Cc1cccc2nc(-c3cccc(-c4ccc(NC(=O)C(C)CN(C)C)cc4)c3)[nH]c12 (configuration not stated) | 222 nM
25 | COc1cc(Cc2cnc(N)nc2N)cc(OCCNC(=O)OCc2ccccc2)c1OC | 923 nM
26 | Clc1ccc(OC2CCC(Cn3ccnc3)(c3ccc(Cl)cc3Cl)CC2)c(Cl)c1 (configuration not stated) | 800 nM
27 | NCCCOc1cnc(-c2ccccc2)c2nc(-c3nonc3N)n(CCc3ccccc3)c12 | 1270 nM
28 | CN1CCN(c2ccnc3ccc(NC(=O)Cc4ccc(-c5ccncc5)c5ccccc45)cc23)CC1 | 203 nM
29 | CN(C)CC(=O)Nc1ccc(Nc2nccc(NCC(O)c3ccccc3)n2)cc1 (configuration not stated) | 973 nM
30 | CN1CCC(Oc2cc(CN3CC[C@H](NC(=O)c4ccc(Cl)c(Cl)c4)C3)ccc2I)C1 (some centres not stated) | 843 nM
31 | COc1ccc(NC(=O)Nc2ccc(-c3ccccc3)cc2Cl)cc1N1CCN(C)CC1 | 875 nM
32 | O=C(/C=C/c1ccc(I)cc1)NCCCCCN1CCC(c2c[nH]c3ccc(O)cc23)CC1 | 773 nM
33 | COc1ccc2ncc(F)c(CCN3CCC(NCc4ccc5c(c4)CCO5)CC3)c2n1 | 677 nM
34 | CCOc1cc(C(=O)NCc2cccc(C(F)(F)F)c2)ccc1-c1nc2cc(Cl)ccc2[nH]1 | 977 nM
35 | NC(=O)c1cccc(C(=O)Nc2cccc(-c3ccc(-c4nc5cc(C(F)(F)F)ccc5[nH]4)cc3)c2)c1 | 520 nM
36 | c1ccc(CCNCc2ccc(-c3cccc(-c4nc5ccccc5[nH]4)c3)cc2)nc1 | 619 nM
37 | CCCN1CCN(CCCNC(=O)c2cc3c(Cl)nc4ccc(C)cc4c3s2)CC1 | 802 nM
